This is an account of results in US9096598B2 (Merck Sharp & Dohme Corp., priority 2011, dated 2015).

One test deals with T1, JAK3 (Homo sapiens, UniProt P52333).
T1 construct: recombinant purified GST-tagged catalytic domain for each enzyme; purchased Invitrogen M4290
The experiment in a line: Jak Biochemical HTRF Assay (JAK3). The conditions noted are these: recombinant purified GST-tagged catalytic domain, [ATP] 2.9 μM, values given as range classes. As to the method: (§1) Jak Biochemical HTRF Assay Protocol
(§2) The ability of compounds to inhibit the activity of JAK1, JAK2, JAK3, and Tyk2 was measured using a recombinant purified GST-tagged catalytic domain for each enzyme (Invitrogen JAK1 #M4290, JAK2 #M4290, JAK3 #M4290, Tyk2 #M4290) in an HTRF format biochemical assay. The reactions employed a common peptide substrate, LCB-EQEDEPEGDYFEWLW-NH2 (in-house). The basic assay protocol is as follows: First, 250 nL of diluted compounds in DMSO were dispensed into the wells of a dry 384-well Black plate (Greiner #781076) using a Labcyte Echo 555 acoustic dispenser. Subsequent reagent additions employed an Agilent Bravo. Next, 18 μL of 1.11× enzyme and 1.11× substrate in 1× assay buffer (Invitrogen kinase buffer #PV3189, 2 mM DTT, 0.05% BSA) were added to the wells and shaken and then preincubated for 30 minutes at room temperature to allow compound binding to equilibrate. After equilibration, 2 μL of 10×ATP in 1× assay buffer was added to initiate the kinase reaction and the plates were shaken and then incubated at room temperature for 120 minutes. At the end of the incubation, 20 μL of 2× stop buffer (streptavidin-Dylight 650 (Thermo #84547B/100 mL), Eu-tagged pY20 antibody (Perkin Elmer #AD0067), EDTA, HEPES, and Triton) was added to quench the reaction. Plates were shaken and centrifuged and then incubated 60 minutes at room temperature and then read on a Perkin Elmer Envision (λex=337 nm, λem=665 and 615 nm, TRF delay time=20 μs). HTRF signal=10,000*665 nm reading/615 nm reading. After normalization to untreated controls, the percent inhibition of the HTRF signal at each compound concentration was calculated. The plot of percent inhibition versus the log of compound concentration was fit with a 4-parameter dose response equation to calculate IC50 values.
(§3) Final reaction conditions were:
(§4) Examples of the instant invention were evaluated in JAK2 and JAK3 in vitro binding assays. Table 13 tabulates the biological data disclosed for the instant invention as a range of JAK2 and JAK3 IC50 values (A: IC50≦10 nM; B: 10 nM>IC50≦500 nM C: IC50>500 nM).
(In general: TR-FRET usually uses a lanthanide donor and a delayed reading to cut background.)

The target in the next test is T2, JAK2 (Homo sapiens, UniProt O60674).
T2 construct: recombinant purified GST-tagged catalytic domain for each enzyme; purchased Invitrogen M4290
The experiment in a line: Jak Biochemical HTRF Assay (JAK2). To be noted: recombinant purified GST-tagged catalytic domain, [ATP] 8.5 μM, values given as range classes. As to the method:
as §1, §2, §3, §4

One may read the IC50 as the point on the concentration scale where inhibition reaches its midpoint.

T2 sequence (O60674 849-1124 limits assumed): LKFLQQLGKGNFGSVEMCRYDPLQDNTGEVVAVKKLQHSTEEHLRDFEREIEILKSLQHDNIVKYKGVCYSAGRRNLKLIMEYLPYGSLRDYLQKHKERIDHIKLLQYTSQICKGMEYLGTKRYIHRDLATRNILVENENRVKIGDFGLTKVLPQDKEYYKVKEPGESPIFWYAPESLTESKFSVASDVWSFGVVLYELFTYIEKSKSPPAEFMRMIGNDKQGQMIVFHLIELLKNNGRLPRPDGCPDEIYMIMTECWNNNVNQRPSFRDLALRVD
T1 sequence (P52333 822-1111 limits assumed): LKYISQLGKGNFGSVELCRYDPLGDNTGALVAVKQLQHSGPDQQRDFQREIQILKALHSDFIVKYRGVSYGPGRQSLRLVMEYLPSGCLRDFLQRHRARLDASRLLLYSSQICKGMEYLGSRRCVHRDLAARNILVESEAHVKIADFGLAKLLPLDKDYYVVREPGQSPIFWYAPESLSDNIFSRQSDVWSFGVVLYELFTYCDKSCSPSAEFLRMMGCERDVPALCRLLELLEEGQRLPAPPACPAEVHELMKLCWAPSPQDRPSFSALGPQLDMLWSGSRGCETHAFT

`C[C@@H](Nc1cncc(-c2c[nH]c3ncc(C(N)=O)cc23)c1)C(=O)NCC(F)(F)F` [Example 1-46, 3-[5-({(1R)-1-methyl-2-oxo-2-[(2,2,2-trifluoroethyl)amino]ethyl}amino)pyridin-3-yl]-1H-pyrrolo[2,3-b]pyridine-5-carboxamide]: the IC50 at JAK3 is no more than 10 nM; on JAK2, 10 to 500 nM.

Turning to `CC(C)[C@@H](Nc1cncc(-c2c[nH]c3ncc(C(=O)N(C)C(C)c4ccn[nH]4)cc23)c1)C(=O)NCC(F)(F)F` (stereo partly drawn) [Example 3-11, N-methyl-3-[5-({(1R)-2-methyl-1-[(2,2,2-trifluoroethyl)carbamoyl]propyl}amino)pyridin-3-yl]-N-[1-(1H-pyrazol-5-yl)ethyl]-1H-pyrrolo[23-b]pyridine-5-carboxamide], the values for the IC50 on JAK3 and at JAK2 were 10 to 500 nM and greater than 500 nM, respectively.

On to `CC(C)[C@H](Nc1cncc(-c2c[nH]c3ncc(OCc4ccccc4)cc23)c1)C(=O)NCC(F)(F)F` [Example 2-4, N~2~-{5-[5-(benzyloxy)-1H-pyrrolo[2,3-b]pyridin-3-yl]pyridin-3-yl}-N-(2,2,2-trifluoroethyl)valinamide], for which the IC50 is no more than 10 nM on JAK3 and 10 to 500 nM at JAK2.

On to `CNC(=O)Nc1cnc2[nH]cc(-c3cncc(N[C@H](C(=O)NCC(F)(F)F)C(C)C)c3)c2c1` [Example 6-5, N~2~-(5-{5-[(methylcarbamoyl)amino]-1H-pyrrolo[2,3-b]pyridin-3-yl}pyridin-3-yl)-N-(2,2,2-trifluoroethyl)valinamide], for which the IC50 at JAK3 was no more than 10 nM; at JAK2 it was 10 to 500 nM.

As to `CC(C)C(Nc1cncc(-c2c[nH]c3ncc(NS(C)(=O)=O)cc23)c1)C(=O)NCC(F)(F)F` (racemic) [Example 5-3, N^2-(5-{5-[(methylsulfonyl)amino]-1H-pyrrolo[2,3-b]pyridin-3-yl}pyridin-3-yl)-N-(2,2,2-trifluoroethyl)valinamide], the IC50 on JAK3 and on JAK2 was 10 to 500 nM throughout.

For the compound `CC(C)[C@@H](Nc1cncc(-c2c[nH]c3ncc(C(=O)N4CCC(O)CC4)cc23)c1)C(=O)NCC(F)(F)F` [Example 3-13, N~2~-(5-{5-[(4-hydroxypiperidin-1-yl)carbonyl]-1H-pyrrolo[2,3-b]pyridin-3-yl}pyridin-3-yl)-N-(2,2,2-trifluoroethyl)-D-valinamide], the IC50 on JAK3 was 10 to 500 nM; at JAK2 it was greater than 500 nM.

On to `CC(C)[C@@H](Nc1cncc(-c2c[nH]c3ncc(COCCN4CCN(C(=O)OC(C)(C)C)CC4)cc23)c1)C(=O)NCC(F)(F)F` [Example 9-3, tert-butyl 4-[2-({3-[5-({(1R)-2-methyl-1-[(2,2,2-trifluoroethyl)carbamoyl]propyl}amino)pyridin-3-yl]-1H-pyrrolo[2,3-b]pyridin-5-yl}methoxy)ethyl]piper-azine-1-carboxylate], for which the IC50 at JAK3 is no more than 10 nM; at JAK2 it was 10 to 500 nM.

Turning to `O=C(NCC(F)(F)F)C(Nc1cncc(-c2c[nH]c3ncc(Cl)cc23)c1)C1CC1` (centres unmarked) [Example 1-48, 2-{[5-(5-chloro-1H-pyrrolo[2,3-b]pyridin-3-yl)pyridin-3-yl]amino}-2-cyclopropyl-N-(2,2,2-trifluoroethyl)acetamide], the IC50 at JAK3 is no more than 10 nM; at JAK2, 10 to 500 nM.

As for `CC(C)[C@@H](Nc1cncc(-c2c[nH]c3ncc(C(=O)N4CCC4)cc23)c1)C(=O)NCC(F)(F)F` [Example 3-6, N~2~-{5-[5-(azetidin-1-ylcarbonyl)-1H-pyrrolo[2,3-b]pyridin-3-yl]pyridin-3-yl}-N-(2,2,2-trifluoroethyl)-D-valinamide], the results for the IC50 at JAK3 and at JAK2 were no more than 10 nM and 10 to 500 nM, respectively.

With `CC(C)C(Nc1cncc(-c2c[nH]c3ncc(OC4CCN(C)CC4)cc23)c1)C(=O)NCC(F)(F)F` (centres unmarked) [Example 2-16, N~2~-(5-{5-[(1-methylpiperidin-4-yl)oxy]-1H-pyrrolo[2,3-b]pridin-3-yl}pyridin-3-yl)-N-(2,2,2-trifluoroethyl)valinamide], the IC50 was no more than 10 nM at JAK3 and 10 to 500 nM at JAK2.

Take `CC(C)[C@@H](Nc1cnnc(-c2c[nH]c3ncc(C#N)cc23)n1)C(=O)NCC(F)(F)F` [Example 1-17, N~2~-[3-(5-cyano-1H-pyrrolo[2,3-b]pyridin-3-yl)-1,2,4-triazin-5-yl]-N-(2,2,2-trifluoroethyl)-D-valinamide]: the results for the IC50 on JAK3 and on JAK2 were no more than 10 nM and 10 to 500 nM, respectively.

With `CC(CO)NC(=O)c1cnc2[nH]cc(-c3cncc(N[C@@H](C(=O)NCC(F)(F)F)C(C)C)c3)c2c1` (stereo partly drawn) [Example 3-4, N-(2-hydroxy-1-methylethyl)-3-[5-({(1R)-2-methyl-1-[(2,2,2-trifluoroethyl)carbamoyl]propyl}amino)pyridin-3-yl]-1H-pyrrolo[2,3-b]pyridine-5-carboxamide], the IC50 on JAK3 and at JAK2 was no more than 10 nM in each case.

On to `CC(C)[C@H](Nc1cncc(-c2c[nH]c3ncc(OC4Cc5ccccc5C4)cc23)c1)C(=O)NCC(F)(F)F` [Example 2-8, N~2~-{5-[5-(2,3-dihydro-1H-inden-2-yloxy)-1H-pyrrolo[2,3-b]pyridin-3-yl]pyridin-3-yl}-N-(2,2,2-trifluoroethyl)valinamide], for which the results for the IC50 on JAK3 and on JAK2 were no more than 10 nM and 10 to 500 nM, respectively.

Regarding `CC(C)[C@@H](Nc1cncc(-c2c[nH]c3ncc(C(=O)NCC4CCS(=O)(=O)C4)cc23)c1)C(=O)NCC(F)(F)F` (stereo partly drawn) [Example 3-9, N-[(1,1-dioxidotetrahydrothiophen-3-yl)methyl]-3-[5-({(1R)-2-methyl-1-[(2,2,2-trifluoroethyl)carbamoyl]propyl}amino)pyridin-3-yl]-1H-pyrrolo[2,3-b]pyridine-5-carboxamide], the values for the half-inhibitory concentration (IC50) at JAK3 and on JAK2 were no more than 10 nM and 10 to 500 nM, respectively.

With `CC(C)NC(=O)c1cnc2[nH]cc(-c3cncc(N[C@@H](C(=O)NCC(F)(F)F)C(C)C)c3)c2c1` [Example 3-2, N-(1-methylethyl)-3-[5-({(1R)-2-methyl-1-[(2,2,2-trifluoroethyl)carbamoyl]propyl}amino)pyridin-3-yl]-1H-pyrrolo[2,3-b]pyridine-5-carboxamide], the IC50 on JAK3 and on JAK2 was no more than 10 nM throughout.

Turning to `CCC(=O)NCc1cnc2[nH]cc(-c3cncc(N[C@H](C(=O)NCC(F)(F)F)C(C)C)c3)c2c1` [Example 10-2, N~2~-(5-{5-[(propanoylamino)methyl]-1H-pyrrolo[2,3-b]pyridin-3-yl}pyridin-3-yl)-N-(2,2,2-trifluoroethyl)valinamide], the IC50 at JAK3 is 10 to 500 nM; at JAK2 it was greater than 500 nM.

Consider `C[C@@H](Nc1cnnc(-c2c[nH]c3ncc(F)cc23)n1)C(=O)NCC(F)(F)F` [Example 1-8, N~2~-[3-(5-fluoro-1H-pyrrolo[2,3-b]pyridin-3-yl)-1,2,4-triazin-5-yl]-N-(2,2,2-trifluoroethyl)-D-alaninamide], for which the IC50 on JAK3 and at JAK2 was 10 to 500 nM in each case.

Take `COc1cnc2[nH]cc(-c3cncc(N[C@@H](C(=O)NCC(F)(F)F)C(C)(C)O)c3)c2c1` [Example 1-50, 3-hydroxy-N~2~-[5-(5-methoxy-1H-pyrrolo[2,3-b]pyridin-3-yl)pyridin-3-yl]-N-(2,2,2-trifluoroethyl)-D-valinamide]: the IC50 at JAK3 was no more than 10 nM; on JAK2 it was 10 to 500 nM.

For the compound `CC(C)(Nc1cncc(-c2c[nH]c3ncc(C#N)cc23)c1)C(=O)NCC(F)(F)F` [Example 1-44, N~2~-[5-(5-cyano-1H-pyrrolo[2,3-b]pyridin-3-yl)pyridin-3-yl]-2-methyl-N-(2,2,2-trifluoroethyl)alaninamide], the values for the IC50 on JAK3 and at JAK2 were no more than 10 nM and 10 to 500 nM, respectively.
